Measurements as given in ChEMBL document CHEMBL1201862, “PubChem BioAssay data set” (2004).
Values belong to the compound of their own block, whether it stands above or below them. The source made the active and inactive calls.

Experiments:
[1] = target: T1, Orexin/Hypocretin receptor type 1 (Homo sapiens, UniProt O43613); assay: (§1) Fluorescence-based cell-based high throughput dose response assay for antagonists of the orexin 1 receptor (OX1R; HCRTR1). [Related pubchem assays (depositor defined):AID434989, AID435008, AID463079, AID485270, AID492963, AID492964, AID492965, AID493232, AID504717, AID504718]; type: functional
T1 sequence (O43613 whole entry): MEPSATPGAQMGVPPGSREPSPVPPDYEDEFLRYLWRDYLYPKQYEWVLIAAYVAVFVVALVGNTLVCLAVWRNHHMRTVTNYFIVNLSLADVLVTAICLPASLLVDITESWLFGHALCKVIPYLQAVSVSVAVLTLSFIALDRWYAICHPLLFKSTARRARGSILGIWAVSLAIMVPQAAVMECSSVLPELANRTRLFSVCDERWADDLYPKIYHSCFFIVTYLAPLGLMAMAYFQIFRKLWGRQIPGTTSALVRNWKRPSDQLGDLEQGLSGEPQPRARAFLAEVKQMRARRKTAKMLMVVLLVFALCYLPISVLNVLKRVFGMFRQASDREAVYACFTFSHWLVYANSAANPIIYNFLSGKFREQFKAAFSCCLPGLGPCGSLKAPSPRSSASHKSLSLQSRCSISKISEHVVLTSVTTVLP

Orexin receptor type 2 [2] = target: T2, Orexin receptor type 2 (Homo sapiens, UniProt O43614); assay: Counterscreen assay for antagonists of the orexin 1 receptor (OX1R; HCRTR1): Fluorescence-based cell-based dose response assay for antagonists of the orexin 2 receptor (OX2R; HCRTR2), run by assay provider.; type: functional
T2 sequence (O43614 whole entry): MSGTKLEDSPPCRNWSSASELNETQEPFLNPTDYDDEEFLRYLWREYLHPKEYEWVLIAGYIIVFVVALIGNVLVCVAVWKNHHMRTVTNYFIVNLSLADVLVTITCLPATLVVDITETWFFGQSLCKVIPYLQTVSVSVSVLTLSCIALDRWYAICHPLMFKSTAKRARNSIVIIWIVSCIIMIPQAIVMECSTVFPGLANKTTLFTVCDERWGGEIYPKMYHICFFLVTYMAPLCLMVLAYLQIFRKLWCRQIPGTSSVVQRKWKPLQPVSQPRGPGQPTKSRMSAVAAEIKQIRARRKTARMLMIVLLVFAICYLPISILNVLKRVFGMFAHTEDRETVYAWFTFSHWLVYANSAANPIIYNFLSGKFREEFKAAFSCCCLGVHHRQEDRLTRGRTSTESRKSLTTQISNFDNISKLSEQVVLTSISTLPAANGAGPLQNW

CHO-K1 = assay: (§2) Counterscreen for antagonists of the orexin 1 receptor (OX1R; HCRTR1): Homogeneous time resolved fluorescence (HTRF)-based cell-based dose response assay to identify antagonists of the parental CHO-K1 cell line. [Related pubchem assays (depositor defined):AID434989, AID435008, AID463079, AID485270, AID492963, AID492964, AID492965, AID493232, AID504699, AID504701]; type: functional; settings: Cricetulus griseus
[3] = as §2, with “Fluorescence-based” for “Homogeneous time resolved fluorescence (HTRF)-based”, “cell-based high throughput” for “cell-based”, “CHO” for “CHO-K1”; type: functional
[4] = target: T1, Orexin/Hypocretin receptor type 1; assay: as §1, with “Homogeneous Time Resolved Fluorescence (HTRF)-based” for “Fluorescence-based”; type: functional
Orexin receptor type 2 [5] = target: T2, Orexin receptor type 2; assay: Counterscreen assay for antagonists of the orexin 1 receptor (OX1R; HCRTR1): Homogeneous Time Resolved Fluorescence (HTRF)-based cell-based dose response assay for antagonists of the orexin 2 receptor (OX2R; HCRTR2), run by assay provider.; type: functional
[6] = target: T3, DNA dC->dU-editing enzyme APOBEC-3A (Homo sapiens, UniProt P31941); assay: SAR analysis of small molecule inhibitors of APOBEC3A DNA Deaminase via a fluorescence-based single-stranded DNA deaminase assay - Set 2.; type: functional; settings: read-out: IC50_Mean
[7] = target: T4, DNA dC->dU-editing enzyme APOBEC-3G (Homo sapiens, UniProt Q9HC16); assay: inhibition of APOBEC3G ssDNA deamination – biochemical, fluorescence, single-stranded DNA substrate, SAR follow-up (AID 602136); type: functional; settings: read-out: IC50_Mean
[8] = target: T4, DNA dC->dU-editing enzyme APOBEC-3G; assay: SAR analysis of small molecule inhibitors of APOBEC3G DNA Deaminase via a fluorescence-based single-stranded DNA deaminase assay - Set 2.; type: functional; settings: read-out: IC50_Mean
[9] = target: T3, DNA dC->dU-editing enzyme APOBEC-3A; assay: SAR analysis of small molecule inhibitors of APOBEC3A DNA Deaminase via a fluorescence-based single-stranded DNA deaminase assay.; type: functional; settings: read-out: IC50_Mean
[10] = target: Voltage-gated N-type calcium channel alpha-1B subunit/Amyloid beta A4 precursor protein-binding family A member 1 (Homo sapiens, UniProt Q00975+Q02410); type: protein assay
[11] = target: T5, Alkaline phosphatase, tissue-nonspecific isozyme (Homo sapiens, UniProt P05186)
T5 sequence (P05186 whole entry): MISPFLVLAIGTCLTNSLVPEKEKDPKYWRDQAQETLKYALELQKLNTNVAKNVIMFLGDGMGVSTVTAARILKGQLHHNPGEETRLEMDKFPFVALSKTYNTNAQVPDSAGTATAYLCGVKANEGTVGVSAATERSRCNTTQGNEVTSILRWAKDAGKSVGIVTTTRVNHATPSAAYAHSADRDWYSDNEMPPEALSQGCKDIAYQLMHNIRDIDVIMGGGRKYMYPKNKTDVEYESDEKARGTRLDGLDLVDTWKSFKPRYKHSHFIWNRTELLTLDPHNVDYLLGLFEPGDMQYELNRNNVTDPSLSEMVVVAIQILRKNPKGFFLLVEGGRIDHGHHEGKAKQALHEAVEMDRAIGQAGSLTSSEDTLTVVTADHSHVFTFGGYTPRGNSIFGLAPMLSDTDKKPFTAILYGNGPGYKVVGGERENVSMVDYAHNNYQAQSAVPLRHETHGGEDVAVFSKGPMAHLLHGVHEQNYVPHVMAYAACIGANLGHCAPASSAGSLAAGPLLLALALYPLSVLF

HEK293 [12] = assay: optical interference in Abeta FP readout, dose response, artefact control for IDE activator project, biochemical, fluorescence polarization (AID 588442); type: functional, cell-based; settings: Homo sapiens
Insulin-degrading enzyme [13] = target: T6, Insulin-degrading enzyme (Homo sapiens, UniProt P14735); assay: cellular IDE activation of Abeta substrate cleavage – fluorescence polarization, HEK cells, dose response (AID 588439); type: functional, cell-based
T6 sequence (P14735 whole entry): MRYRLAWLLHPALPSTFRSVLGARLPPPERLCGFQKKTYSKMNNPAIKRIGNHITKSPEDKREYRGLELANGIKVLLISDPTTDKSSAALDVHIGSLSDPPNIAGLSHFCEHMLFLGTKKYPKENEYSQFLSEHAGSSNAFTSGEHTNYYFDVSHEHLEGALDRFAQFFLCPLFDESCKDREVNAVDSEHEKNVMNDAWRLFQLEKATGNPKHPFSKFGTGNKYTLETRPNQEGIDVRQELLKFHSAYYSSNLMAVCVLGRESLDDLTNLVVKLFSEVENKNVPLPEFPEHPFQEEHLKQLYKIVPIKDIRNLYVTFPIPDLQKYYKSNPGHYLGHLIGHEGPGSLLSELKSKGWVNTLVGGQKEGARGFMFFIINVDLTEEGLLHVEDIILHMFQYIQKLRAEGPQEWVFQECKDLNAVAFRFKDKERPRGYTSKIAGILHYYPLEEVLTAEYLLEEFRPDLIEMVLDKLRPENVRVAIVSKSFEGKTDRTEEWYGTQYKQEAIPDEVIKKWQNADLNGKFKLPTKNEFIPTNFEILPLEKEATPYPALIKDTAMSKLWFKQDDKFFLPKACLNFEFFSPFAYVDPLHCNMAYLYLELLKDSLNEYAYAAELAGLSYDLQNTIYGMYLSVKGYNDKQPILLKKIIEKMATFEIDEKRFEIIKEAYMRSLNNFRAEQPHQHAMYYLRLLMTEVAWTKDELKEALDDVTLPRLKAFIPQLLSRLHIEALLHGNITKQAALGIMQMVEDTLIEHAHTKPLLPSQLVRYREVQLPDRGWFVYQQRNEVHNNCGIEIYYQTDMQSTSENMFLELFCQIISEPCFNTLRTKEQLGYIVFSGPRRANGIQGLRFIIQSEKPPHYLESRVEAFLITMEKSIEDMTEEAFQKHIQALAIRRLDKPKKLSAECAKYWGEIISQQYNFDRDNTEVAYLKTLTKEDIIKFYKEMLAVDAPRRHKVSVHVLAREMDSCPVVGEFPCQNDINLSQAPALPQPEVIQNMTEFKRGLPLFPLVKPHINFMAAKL

[14] = viability of uninfected HEp-2 cells – cell-based, HTS, cytotoxicity control for RSV inhibitor project, dose response (AID 2410); type: functional; settings: human respiratory syncytial virus
HEK293 [15] = assay: membrane integrity loss in HEK cells – cell-based, fluorescence, cytotoxicity control for IDE activator project, dose response (AID 588440); type: functional; settings: Homo sapiens;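 note: cytotoxicity by LDH release measuring loss of membrane integrity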
Insulin-degrading enzyme [16] = target: T6, Insulin-degrading enzyme; assay: recombinant IDE activation, cell-free – biochemical, fluorescence polarization, counter-screen for IDE activator project, dose response (AID 588681)
[17] = target: Mitochondrial peptide methionine sulfoxide reductase (Bos taurus, UniProt P54149); type: functional;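 note: absorbance read-out, biochemical high-throughput dose-response screen for MsrA inhibitors, confirmatory; recombinant bovine MsrA coupled to E. coli TrxB with NADPH and selenocystamine; potency is for inhibitors of MsrA activity on DMSO substrate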
[18] = target: T7, Apoptotic protease-activating factor 1 (Homo sapiens, UniProt O14727); assay: SAR analysis of small molecule Activators of Apaf-1 in a Fluorescent assay.; type: functional; settings: read-out: EC50_Mean;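 note: caspase-3 cleavage of fluorogenic Rh110 DEVD substrate downstream of apoptosome activation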
T7 sequence (O14727 whole entry): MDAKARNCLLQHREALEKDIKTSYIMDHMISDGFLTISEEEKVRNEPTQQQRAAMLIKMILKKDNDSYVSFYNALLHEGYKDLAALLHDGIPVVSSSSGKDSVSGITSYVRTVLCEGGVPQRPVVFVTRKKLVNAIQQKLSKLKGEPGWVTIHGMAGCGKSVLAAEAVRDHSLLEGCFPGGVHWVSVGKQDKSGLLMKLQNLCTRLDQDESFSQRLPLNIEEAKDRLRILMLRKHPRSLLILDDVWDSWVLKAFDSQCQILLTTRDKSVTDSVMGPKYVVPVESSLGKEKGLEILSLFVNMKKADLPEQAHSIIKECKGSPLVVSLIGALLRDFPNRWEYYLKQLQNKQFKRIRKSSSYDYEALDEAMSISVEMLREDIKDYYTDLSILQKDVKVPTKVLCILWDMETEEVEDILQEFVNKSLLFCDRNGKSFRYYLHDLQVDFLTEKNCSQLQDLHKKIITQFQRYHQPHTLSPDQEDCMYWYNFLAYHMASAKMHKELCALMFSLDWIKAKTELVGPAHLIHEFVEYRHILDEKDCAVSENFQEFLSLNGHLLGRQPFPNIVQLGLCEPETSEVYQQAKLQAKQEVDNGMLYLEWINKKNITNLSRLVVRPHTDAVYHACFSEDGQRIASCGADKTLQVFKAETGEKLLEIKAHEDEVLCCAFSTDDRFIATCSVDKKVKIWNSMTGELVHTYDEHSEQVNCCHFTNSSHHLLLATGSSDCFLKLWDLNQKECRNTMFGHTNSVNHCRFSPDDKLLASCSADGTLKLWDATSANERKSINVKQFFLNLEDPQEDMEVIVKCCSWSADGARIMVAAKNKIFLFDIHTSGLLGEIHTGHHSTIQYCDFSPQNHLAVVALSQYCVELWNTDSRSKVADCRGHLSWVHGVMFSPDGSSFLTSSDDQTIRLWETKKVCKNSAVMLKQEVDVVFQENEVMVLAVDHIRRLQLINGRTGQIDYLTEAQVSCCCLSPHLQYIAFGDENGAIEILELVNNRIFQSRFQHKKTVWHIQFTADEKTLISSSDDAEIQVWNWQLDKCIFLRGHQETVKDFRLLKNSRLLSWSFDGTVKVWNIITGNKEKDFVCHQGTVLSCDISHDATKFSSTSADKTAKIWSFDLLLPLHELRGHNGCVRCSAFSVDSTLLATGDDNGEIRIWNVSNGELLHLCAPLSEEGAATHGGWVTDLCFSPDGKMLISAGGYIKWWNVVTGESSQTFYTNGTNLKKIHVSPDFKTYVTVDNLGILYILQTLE

[19] = target: Ras and Rab interactor 1/Tyrosine-protein kinase ABL1 (Homo sapiens, UniProt P00519+Q13671); type: functional;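 note: biochemical TR-FRET dose-response test measuring inhibition of binding between Rin1 and Abl proteins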
[20] = bead-based luminescence quenchers, dual-tagged ARNT – biochemical, AlphaScreen, cherry-pick, artefact control for ARNT-TACC3 interaction inhibitor project, dose response (AID 651705); type: functional;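 note: AlphaScreen bead proximity signal that flags compounds interfering with the detection technology; potency reflects signal decrease which marks the compound as an assay artifact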

T3 sequence (P31941 whole entry): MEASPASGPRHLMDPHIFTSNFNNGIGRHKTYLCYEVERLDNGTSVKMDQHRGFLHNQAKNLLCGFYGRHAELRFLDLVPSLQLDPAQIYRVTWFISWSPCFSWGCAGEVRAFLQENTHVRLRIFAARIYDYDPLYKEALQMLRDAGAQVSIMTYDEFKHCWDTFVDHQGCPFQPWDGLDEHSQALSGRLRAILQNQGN
T4 sequence (Q9HC16 whole entry): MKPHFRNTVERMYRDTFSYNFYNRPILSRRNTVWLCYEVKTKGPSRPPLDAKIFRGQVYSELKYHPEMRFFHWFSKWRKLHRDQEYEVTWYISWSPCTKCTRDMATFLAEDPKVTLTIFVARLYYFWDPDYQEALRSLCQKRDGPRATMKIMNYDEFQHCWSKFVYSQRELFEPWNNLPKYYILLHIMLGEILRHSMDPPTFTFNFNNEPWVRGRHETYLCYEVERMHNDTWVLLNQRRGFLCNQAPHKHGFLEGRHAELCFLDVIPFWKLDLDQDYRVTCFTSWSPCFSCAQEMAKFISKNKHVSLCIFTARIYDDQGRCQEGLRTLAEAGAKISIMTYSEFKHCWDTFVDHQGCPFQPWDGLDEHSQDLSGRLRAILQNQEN
Ras and Rab interactor 1/Tyrosine-protein kinase ABL1, sequence (P00519 whole entry): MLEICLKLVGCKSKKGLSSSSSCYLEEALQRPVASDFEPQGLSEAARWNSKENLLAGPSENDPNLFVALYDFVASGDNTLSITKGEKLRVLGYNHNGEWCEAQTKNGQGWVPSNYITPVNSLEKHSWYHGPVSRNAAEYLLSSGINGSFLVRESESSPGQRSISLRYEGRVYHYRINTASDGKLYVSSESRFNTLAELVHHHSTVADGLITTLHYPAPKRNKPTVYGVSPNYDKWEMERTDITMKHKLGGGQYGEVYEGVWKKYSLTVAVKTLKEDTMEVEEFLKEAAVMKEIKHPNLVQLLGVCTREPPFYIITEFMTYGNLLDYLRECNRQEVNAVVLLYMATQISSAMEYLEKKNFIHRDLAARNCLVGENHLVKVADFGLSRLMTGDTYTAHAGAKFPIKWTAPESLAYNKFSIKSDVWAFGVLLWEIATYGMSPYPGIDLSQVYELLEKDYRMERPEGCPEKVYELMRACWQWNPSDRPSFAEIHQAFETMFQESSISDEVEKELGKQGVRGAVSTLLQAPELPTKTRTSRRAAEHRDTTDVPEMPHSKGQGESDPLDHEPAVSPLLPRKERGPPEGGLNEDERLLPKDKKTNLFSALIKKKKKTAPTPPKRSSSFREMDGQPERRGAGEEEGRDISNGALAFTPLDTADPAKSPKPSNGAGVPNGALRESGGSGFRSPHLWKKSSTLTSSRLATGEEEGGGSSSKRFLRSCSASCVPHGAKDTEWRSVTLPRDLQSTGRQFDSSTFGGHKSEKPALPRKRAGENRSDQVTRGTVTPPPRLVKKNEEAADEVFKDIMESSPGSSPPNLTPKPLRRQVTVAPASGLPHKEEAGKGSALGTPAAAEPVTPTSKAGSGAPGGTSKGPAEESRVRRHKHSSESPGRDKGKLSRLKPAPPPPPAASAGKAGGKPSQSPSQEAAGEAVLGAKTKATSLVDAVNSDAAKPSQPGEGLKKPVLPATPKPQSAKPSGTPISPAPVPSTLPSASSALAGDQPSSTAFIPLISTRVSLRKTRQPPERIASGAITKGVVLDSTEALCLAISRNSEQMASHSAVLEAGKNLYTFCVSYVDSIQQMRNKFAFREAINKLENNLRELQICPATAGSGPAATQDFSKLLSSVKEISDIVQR
Ras and Rab interactor 1/Tyrosine-protein kinase ABL1, sequence (Q13671 whole entry): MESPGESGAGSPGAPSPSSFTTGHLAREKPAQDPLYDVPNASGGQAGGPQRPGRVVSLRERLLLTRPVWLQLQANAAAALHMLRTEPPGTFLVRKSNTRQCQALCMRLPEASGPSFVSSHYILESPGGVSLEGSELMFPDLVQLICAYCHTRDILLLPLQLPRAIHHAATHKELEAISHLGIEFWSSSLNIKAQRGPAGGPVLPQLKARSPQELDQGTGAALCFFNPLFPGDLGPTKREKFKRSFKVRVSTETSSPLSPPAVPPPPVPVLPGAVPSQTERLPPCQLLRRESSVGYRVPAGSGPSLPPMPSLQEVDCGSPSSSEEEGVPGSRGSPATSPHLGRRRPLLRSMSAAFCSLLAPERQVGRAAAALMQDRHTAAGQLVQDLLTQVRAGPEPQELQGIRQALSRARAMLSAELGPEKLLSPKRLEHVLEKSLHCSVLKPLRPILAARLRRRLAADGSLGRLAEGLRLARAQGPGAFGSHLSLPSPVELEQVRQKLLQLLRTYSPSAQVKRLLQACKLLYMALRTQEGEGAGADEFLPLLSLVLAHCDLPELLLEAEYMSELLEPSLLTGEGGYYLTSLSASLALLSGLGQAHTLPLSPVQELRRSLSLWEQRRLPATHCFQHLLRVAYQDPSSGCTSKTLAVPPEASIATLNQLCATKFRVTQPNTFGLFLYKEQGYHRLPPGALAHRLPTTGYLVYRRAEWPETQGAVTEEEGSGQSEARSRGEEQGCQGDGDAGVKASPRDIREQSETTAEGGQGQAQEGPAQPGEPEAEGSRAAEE
Mitochondrial peptide methionine sulfoxide reductase, sequence (P54149 whole entry): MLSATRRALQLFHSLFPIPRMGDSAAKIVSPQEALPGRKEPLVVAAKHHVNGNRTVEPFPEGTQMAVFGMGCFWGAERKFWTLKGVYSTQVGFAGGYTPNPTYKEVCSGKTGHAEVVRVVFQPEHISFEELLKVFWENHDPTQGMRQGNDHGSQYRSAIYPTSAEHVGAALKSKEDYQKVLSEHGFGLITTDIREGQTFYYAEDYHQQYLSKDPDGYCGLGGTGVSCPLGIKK

Structure (SMILES): Cc1ccc(NC2CCCN(C(=O)c3cn(C)c4ccccc34)C2)cc1C (configuration not stated)
- IC50 [1]: 8.18 µM (active)
- IC50 (Orexin receptor type 2 [2]): 7.1 µM (active)
- IC50 (CHO-K1): > 66.2 µM (inactive)
- IC50 [3]: > 49.7 µM (inactive)
- IC50 [4]: 0.771 µM (active)
- IC50 (Orexin receptor type 2 [5]): 1.64 µM (active)

Structure (SMILES): Cc1ccc(C=Nn2c(-c3ccco3)n[nH]c2=S)s1
- IC50 [6]: 85.5 µM (inactive)
- IC50 [7]: 2.09 µM (active)
- IC50 [8]: 3.67 µM (active)
- IC50 [9]: > 99 µM (inactive)

Structure (SMILES): CCN(CC)c1ccc(NC(=O)Cn2c(C(C)NC(=O)c3ccccc3)nc3ccccc32)cc1 (configuration not stated)
- IC50 [10]: > 50 µM (inactive)
- IC50 [1]: 0.382 µM (active)
- IC50 (Orexin receptor type 2 [2]): > 88.8 µM (inactive)
- EC50 [11]: > 100 µM (not active)
- IC50 (CHO-K1): > 66.2 µM (inactive)
- IC50 [3]: > 49.7 µM (inactive)
- IC50 [4]: 0.106 µM (active)
- IC50 (Orexin receptor type 2 [5]): > 50 µM (inactive)

Structure (SMILES): Oc1ccc(C2Nc3cccc4cccc(c34)N2)cc1
- EC50 (HEK293 [12]): 20.4 µM (inactive)
- EC50 (Insulin-degrading enzyme [13]): 11.1 µM (inactive)
- CC50 [14]: 21.8 µM (active)
- IC50 (HEK293 [15]): > 89.2 µM (inactive)
- EC50 (Insulin-degrading enzyme [16]): 6.73 µM (active)

- IC50 [17]: 140 µM (inactive)
Structure (SMILES): O=C(NCc1cccnc1)c1ccc(=O)oc1

- EC50 [18]: > 100 µM (inactive)
Structure (SMILES): COC(=O)c1coc(-c2cc3ccccc3s2)n1

- IC50 [19]: 16.9 µM (inactive)
Structure (SMILES): OC[C@@H]1CN(Cc2ccc(-c3ccccc3)cc2)C[C@H](n2cnc3c(NC4CC4)ncnc32)O1

Structure (SMILES): C[C@@H]1CN([C@@H](C)CO)C(=O)c2cc(NC(=O)CCCN(C)C)ccc2O[C@@H](C)CCCCO[C@H]1CN(C)C(=O)Nc1cccc2ccccc12
- AC50 [20]: 74.8 µM (active)
